Experimental data: US8703066B2, “Sterilization system and method” (Noxilizer, Inc., priority 2004, dated 2014)

Columns and labels:
cocktail of bacteria = experiment: Humidity effects: sterilization of sealed and unsealed dry stainless steel coupons; format: cell-based; conditions: 15 min sterilization cycle at 1 ATM, 2/2 trials
Protocol: Several humidifying paradigms and the ability to sterilize through a gas sterilization seal pouch is tested. A cocktail of bacteria is used, all grown to about 10^8 CFU/ml and mixed in equal volume. Stainless steel coupons are dipped, allowed to dry, and subject to one of three methods. Method A samples are wrapped in a moist Kimwipe, Method B samples are left dry, and Method C samples are sealed, dry, in a V. Mueller™ Dual Peel Seal Pouch, designed for gas and autoclave sterilizations. Samples from methods B and C are placed in the sterilization chamber with a moist Kimwipe, which is placed in the chamber so as to insure maximal separation of the Kimwipe and the sample to be sterilized. The chamber is re-sealed carefully so as not to disturb the positioning of the samples relative to the Kimwipe. The samples are subject to a 15 min sterilization cycle at 1 ATM, removed under sterile conditions, and the samples are placed in BHI media as described above. Control samples are handled identically except for the chamber being gassed with […]. All controls reached greater than […] total CFU/ml in 24 hrs as determined by ABS595 standardization curves.

[1] = test system: sporulated B. subtilis var. niger; experiment: Sterilization with varying quantities of delivered nitric oxide, contaminated stainless steel strips; format: cell-based; conditions: 5%, 2.5% and 1% NO in air, five minutes, culture in LB 48 hours then plating
Excerpt: A blood storage container (Nexell, Irvine, Calif.; Lifecell PL732 plastic tissue culture flask) is used as the sterilization chamber. Strips of stainless steel are dipped in 10^6 CFU/ml sporulated B. subtilis var. niger (as determined by ABS595 standardization curves). The strips are allowed to air dry, placed in the sterilization chamber, and then the sterilization chamber is heat sealed. The sterilization chamber is evacuated using a syringe and controlling air flow with the sterilization chamber valves. A known quantity of air is added to the vessel using a graduated syringe.
An NO-generating donor compound is placed in a 7 cc gas generation chamber. The gas generation chamber is attached to the storage container through luer lock connectors. The liquid activator, 3.0N HCl is added to the gas generation chamber and the generated gas is allowed to flow into the sterilization chamber. After a brief generation period, the gas is sealed in the sterilization chamber using a compression valve.
Varying quantities of NO gas, namely 10%, 5%, 2.5% and 1% NO, are tested for their efficacy in the sterilization chamber. The quantity (%) of NO gas generated and added to the sterilization chamber is calculated from the number of moles of NO required to be generated to result in the desired percentage of NO. […]

[2] = test system: Klebsiella pneumoniae (str 21991); experiment: Pressure vessel sterilization of contaminated stainless steel coupons with NO gas; format: cell-based; conditions: five minute sterilization cycle; pure NO at atmospheric pressure; stainless steel coupons dipped in at least 10^8 CFU/ml
Excerpt: (§1) A glass pressure vessel is connected to a scrubbed NO gas tank source. The pressure vessel is purged five times with Argon gas to eliminate atmospheric oxygen (preventing formation of NO2.) and an additional three purges of NO are used to ensure a pure NO atmosphere and consistent results of bactericidal activity. To test the sterilization method: Bacillus subtilis var niger 9372 is used (after obtaining >80% endospore formation; a standard for ethylene oxide and autoclave test sterilization), as well as organisms commonly found on the epidermis: Staphylococcus aureus (str 21769) and Staphylococcus epidermides (str 21977), and the enteric organisms: Klebsiella pneumoniae (str 21991) and Serratia marcesens (str 21140). This particular Serratia strain has been found in previous studies to be one of the most resistant bacteria to the bactericidal effects of NO in culture (Raulli et al., 2002).
(§2) The organisms are cultured overnight in BHI. The cultures contained at least 10^8 CFU/ml based on standardized ABS595 curves for each organism. Stainless steel coupons, 3×1 cm, are dipped in the cultures, and either dried in ambient air first or placed in the pressure vessel still wet from the culture dip. The coupons are exposed to NO gas at atmospheric pressure for decreasing time periods starting with 45 min and working back to 5 min. Control samples are handled identically, except the pressure vessel was gassed with nitrogen.
(§3) The sealed vessel is carefully opened in a laminar flow hood after all the NO had been purged with Argon. The samples are removed aseptically with sterilized tongs and placed in culture tubes containing sterile BHI media. The samples are incubated in a vigorously shaking waterbath at 35° C. The samples are observed (digitally photographed) 24 hrs later, placed back in the waterbath and are measured for absorbance 72 hrs later. The controls had >10^8 CFU/ml after 24 hrs.

[3] = test system: Staphylococcus epidermides (str 21977); experiment: as above; format: cell-based; conditions: five minute sterilization cycle; pure NO at atmospheric pressure; stainless steel coupons dipped in at least 10^8 CFU/ml
Excerpt: as §1, §2, §3

[4] = test system: Serratia marcesens (str 21140); experiment: as above; format: cell-based; conditions: five minute sterilization cycle; pure NO at atmospheric pressure; stainless steel coupons dipped in at least 10^8 CFU/ml
Excerpt: as §1, §2, §3

[5] = test system: Staphylococcus aureus (str 21769); experiment: as above; format: cell-based; conditions: five minute sterilization cycle; pure NO at atmospheric pressure; stainless steel coupons dipped in at least 10^8 CFU/ml
Excerpt: as §1, §2, §3

[6] = test system: Bacillus subtilis var niger 9372; experiment: as above; format: cell-based; conditions: five minute sterilization cycle; pure NO at atmospheric pressure; stainless steel coupons dipped in at least 10^8 CFU/ml
Excerpt: as §1, §2, §3

B. subtilis (vegetative) = experiment: Portable system (blood storage container) sterilization of stainless steel coupons; format: cell-based, Bacillus subtilis; conditions: fifteen minute sterilization cycle; NO from acidified diazeniumdiolate; 1 ATM; stainless steel coupon, at least 10^8 CFU/ml
Excerpt: (§4) Similar to Example 1, a portable system is devised using blood storage containers and other laboratory items. In this construct, a blood storage container (Nexell, Irvine, Calif.; Lifecell PL732 plastic tissue culture flask) serves as the sterilization chamber. It has multiple ports, is easily attached to tubing or other chambers, and is easily cut and heat sealed for insertion and removal of contaminated/sterilized samples. The heat seal is strong and holds well at pressure, even though 1 ATM of pressure is used experimentally. Two 60 ml syringes connected to each other and a line of tubing by a three-way stopcock are employed to mix acidic buffer in one syringe with NO-releasing diazeniumdiolate in the other syringe. The tubing is connected to the blood container/sterilization chamber.
(§5) The stopcock is turned so that the acidic buffer can be added to the syringe containing the diazeniumdiolate. The valve is immediately closed to the buffer syringe and opened to the sterilization chamber. The 300 cc sterilization chamber inflates in about 15 seconds. Experiments are performed as described above, except that the devised system is used instead of the pressure vessel.
The test organisms are cultured overnight in BHI. The cultures contained at least 10^8 CFU/ml (100-fold greater than FDA testing guidelines) based on standardized ABS595 curves for each organism. […]

[7] = test system: bacterial cocktail containing B. subtilis, S. marcesens, and S. epidermides; experiment: Sterilization of medical materials (tubing, needle); format: cell-based; conditions: 15 min sterilization cycle, about 10^8 total CFU/ml
Protocol: An additional study is performed to test medically relevant materials such as needles and plastic tubing. Teflon (⅛′ ID), polyethylene (1.77 mm ID), vinyl (0.5 mm ID) tubing and a 30 ga. disposable needle are dipped in a bacterial cocktail containing B. subtilis, S. marcesens, and S. epidermides at about 10^8 total CFU/ml The samples are placed in the sterilization chamber and sealed. In each case, the lumen of the tubing or contained at least some visually confirmed inoculum. […] The controls for each material reached at least 10^6 total CFU/ml in 24 hrs as determined by ABS595 standardization curves.

[8] = test system: Bacillus subtilis (spore); experiment: Portable system (blood storage container) sterilization of stainless steel coupons; format: cell-based; conditions: fifteen minute sterilization cycle; NO from acidified diazeniumdiolate; 1 ATM; stainless steel coupon, at least 10^8 CFU/ml
Excerpt: as §4, §5
(§6) The test organisms are cultured overnight in BHI. The cultures contained at least 10^8 CFU/ml (100-fold greater than FDA testing guidelines) based on standardized ABS595 curves for each organism. Stainless steel coupons, 3×1 cm, are dipped in the cultures, and either dried in ambient air first or placed in the pressure vessel still wet from the culture dip. The dried samples are dipped in sterile BHI media before being placed in the sterilization chamber.

[9] = test system: Staphylococcus epidermides; experiment: as above; format: cell-based; conditions: fifteen minute sterilization cycle; NO from acidified diazeniumdiolate; 1 ATM; stainless steel coupon, at least 10^8 CFU/ml
Excerpt: as §4, §5, §6

Serratia marcesens = experiment: as above; format: cell-based; conditions: fifteen minute sterilization cycle; NO from acidified diazeniumdiolate; 1 ATM; stainless steel coupon, at least 10^8 CFU/ml
Excerpt: as §4, §5, §6

## [N]=O [NO, nitric oxide]
Cocktail of bacteria; Method A Moist Kimwipe Wrap
  Killed (trials): Killed
Cocktail of bacteria; Method B Dry sample, moist Kimwipe apart in chamber
  Killed (trials): Killed
Cocktail of bacteria; Method C Dry, Sealed Sample in Dual Peel Seal Pouch, moist Kimwipe apart in chamber
  Killed (trials): Killed
[1]
  killing of 10^6 CFU/ml sporulated B. subtilis var. niger: effective at killing
[2]
  Killed (trials with no bacterial growth / trials): 3/3 Killed
[3]
  Killed (trials with no bacterial growth / trials): 3/3 Killed
[4]
  Killed (trials with no bacterial growth / trials): 3/3 Killed
[5]
  Killed (trials with no bacterial growth / trials): 3/3 Killed
[6]
  Killed (trials with no bacterial growth / trials): 3/3 Killed
B. subtilis (vegetative)
  Killed (trials): 2/2 Killed
[7]; Disposable Needle 30 ga.
  Killed (trials): 2/2 Killed
[7]; Polyethylene Tubing 1.77 mm ID
  Killed (trials): 2/2 Killed
[7]; Teflon Tubing 1/8' ID
  Killed (trials): 2/2 Killed
[7]; Vinyl Tubing 0.5 mm ID
  Killed (trials): 2/2 Killed
[8]
  Killed (trials): 2/2 Killed
[9]
  Killed (trials): 3/3 Killed
Serratia marcesens
  Killed (trials): 3/3 Killed
